Target: Protein cereblon/Androgen receptor (Homo sapiens, UniProt P10275+Q96SW2)
Assay: Protac activity at E3 ubiquitin ligase/androgen receptor in human LNCaP cells assessed as induction of androgen receptor degradation incubated for overnight by sandwich ELISA
Format: cell-based

Sequence of Protein cereblon/Androgen receptor (P10275 whole entry): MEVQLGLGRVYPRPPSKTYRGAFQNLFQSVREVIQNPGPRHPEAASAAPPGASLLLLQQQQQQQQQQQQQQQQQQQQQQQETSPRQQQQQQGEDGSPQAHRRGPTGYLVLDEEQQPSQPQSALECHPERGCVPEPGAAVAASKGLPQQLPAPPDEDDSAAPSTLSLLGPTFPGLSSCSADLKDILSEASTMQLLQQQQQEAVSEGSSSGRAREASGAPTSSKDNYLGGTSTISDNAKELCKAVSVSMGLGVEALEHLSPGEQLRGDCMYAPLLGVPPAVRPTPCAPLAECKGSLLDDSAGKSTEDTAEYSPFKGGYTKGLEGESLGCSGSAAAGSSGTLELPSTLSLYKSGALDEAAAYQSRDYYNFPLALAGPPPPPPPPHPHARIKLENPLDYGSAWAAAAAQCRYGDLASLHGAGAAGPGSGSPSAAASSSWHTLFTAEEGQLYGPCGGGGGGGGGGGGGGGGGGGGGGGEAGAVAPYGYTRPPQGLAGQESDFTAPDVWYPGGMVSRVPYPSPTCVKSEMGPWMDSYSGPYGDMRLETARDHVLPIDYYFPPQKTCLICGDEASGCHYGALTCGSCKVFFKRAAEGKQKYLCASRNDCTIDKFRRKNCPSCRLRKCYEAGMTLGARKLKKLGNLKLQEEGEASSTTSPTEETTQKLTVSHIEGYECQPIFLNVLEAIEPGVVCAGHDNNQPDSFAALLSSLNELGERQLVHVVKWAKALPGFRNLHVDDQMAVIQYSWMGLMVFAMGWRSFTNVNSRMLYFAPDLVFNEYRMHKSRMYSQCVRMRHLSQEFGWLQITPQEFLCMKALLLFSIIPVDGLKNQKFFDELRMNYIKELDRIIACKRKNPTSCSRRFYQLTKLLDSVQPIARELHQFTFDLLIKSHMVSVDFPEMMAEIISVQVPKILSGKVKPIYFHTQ
Sequence of Protein cereblon/Androgen receptor (Q96SW2 whole entry): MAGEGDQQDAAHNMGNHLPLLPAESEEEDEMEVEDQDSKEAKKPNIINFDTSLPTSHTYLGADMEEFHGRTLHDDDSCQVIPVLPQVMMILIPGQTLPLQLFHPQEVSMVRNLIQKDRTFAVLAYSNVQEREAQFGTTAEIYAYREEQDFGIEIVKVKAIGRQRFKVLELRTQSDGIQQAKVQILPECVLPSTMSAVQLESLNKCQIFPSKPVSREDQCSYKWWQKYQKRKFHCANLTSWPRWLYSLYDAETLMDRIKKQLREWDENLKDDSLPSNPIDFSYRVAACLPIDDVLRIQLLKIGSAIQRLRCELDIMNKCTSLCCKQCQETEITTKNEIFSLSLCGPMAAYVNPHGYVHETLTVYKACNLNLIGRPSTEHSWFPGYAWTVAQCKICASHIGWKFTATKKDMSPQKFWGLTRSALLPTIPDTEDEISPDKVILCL

SMILES	DC50
N#Cc1ccc(N2CCc3c(ncnc3Nc3ccc(C(=O)NCC(=O)N4CCC(CN5CCN(c6cc7c(cc6F)C(=O)N(C6CCC(=O)NC6=O)C7=O)CC5)CC4)c(F)n3)C2)cc1Cl (configuration not stated)	2.8 nM
N#Cc1ccc(N2CCc3c(ncnc3Nc3ccc(C(=O)N4CCC(CN5CCN(c6ccc7c(c6)C(=O)N(C6CCC(=O)NC6=O)C7=O)CC5)CC4)c(F)n3)C2)cc1Cl (configuration not stated)	3.2 nM
CN(C1CCN(C(=O)c2ccc(Nc3ncnc4c3CCN(c3ccc(C#N)c(Cl)c3)C4)nc2F)CC1)C1CCN(c2cc3c(cc2F)C(=O)N(C2CCC(=O)NC2=O)C3=O)CC1 (configuration not stated)	16.6 nM
N#Cc1ccc(N2CCc3c(ncnc3Nc3ccc(C(=O)NC4CCN(CC5CCN(c6ccc7c(c6)C(=O)N(C6CCC(=O)NC6=O)C7=O)CC5)CC4)c(F)n3)C2)cc1Cl (configuration not stated)	8.5 nM
N#Cc1ccc(N2CCc3c(ncnc3Nc3ccc(C(=O)N[C@H]4CC[C@H](CN5CCN(c6cc7c(cc6F)C(=O)N(C6CCC(=O)NC6=O)C7=O)CC5)CC4)c(F)n3)C2)cc1Cl (some centres not stated)	9.2 nM
C[C@H]1CN(c2ccc3c(c2)C(=O)N(C2CCC(=O)NC2=O)C3=O)CCN1C[C@H]1CC[C@H](NC(=O)c2ccc(Nc3ncnc4c3CCN(c3ccc(C#N)c(Cl)c3)C4)nc2F)CC1 (some centres not stated)	9.1 nM
CN(C1CCN(C(=O)c2ccc(Nc3ncnc4c3CCN(c3ccc(C#N)c(Cl)c3)C4)nc2F)CC1)C1CCN(c2ccc3c(c2)C(=O)N(C2CCC(=O)NC2=O)C3=O)CC1 (configuration not stated)	4.82 nM
C[C@@H]1CN(c2ccc3c(c2)C(=O)N(C2CCC(=O)NC2=O)C3=O)CCN1C[C@H]1CC[C@H](NC(=O)c2ccc(Nc3ncnc4c3CCN(c3ccc(C#N)c(Cl)c3)C4)nc2F)CC1 (some centres not stated)	5.3 nM
N#Cc1ccc(N2CCc3c(ncnc3Nc3ccc(C(=O)NC4CCN(C5CCN(c6ccc7c(c6)C(=O)N(C6CCC(=O)NC6=O)C7=O)CC5)CC4)c(F)n3)C2)cc1Cl (configuration not stated)	4.9 nM
N#Cc1ccc(N2CCc3c(ncnc3Nc3ccc(C(=O)NCCC(=O)N4CCC(CN5CCN(c6cc7c(cc6F)C(=O)N(C6CCC(=O)NC6=O)C7=O)CC5)CC4)c(F)n3)C2)cc1Cl (configuration not stated)	7.7 nM
N#Cc1ccc(N2CCc3c(ncnc3Nc3ccc(C(=O)N4CCC(CN5CCN(c6cc7c(cc6F)C(=O)N(C6CCC(=O)NC6=O)C7=O)CC5)CC4)c(F)n3)C2)cc1Cl (configuration not stated)	11.6 nM
N#Cc1ccc(N2CCc3c(ncnc3Nc3ccc(C(=O)NCCCCCCN4CCN(c5ccc6c(c5)C(=O)N(C5CCC(=O)NC5=O)C6=O)CC4)c(F)n3)C2)cc1Cl (configuration not stated)	3 nM
